From PubChem BioAssay AID2060484 (Molecular Pharmacology Branch, DTP, NCI, 2025)

Test system: SUM149PT spheroids with HUVEC/MSC, viability
Experiment: Anticancer human tumor SUM149PT cell line growth inhibition [GQUAD];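 also: spheroids exposed to drugs for seven days before readout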;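 as to viability, T/C: percent viability relative to DMSO vehicle control taken as 100%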
Settings: for IC50: curve of first compound; for viability, T/C: stronger effect = lower value
Method in brief: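 Viability of tumor cells grown as complex spheroids with endothelial and stromal cells, exposed to drug combinations. Top concentration at or near clinical Cmax (else 10 microM), diluted in half-log increments.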

[1] = second compound 0.0316 µM, first compound 0.0316 µM
[2] = second compound 0.0316 µM, first compound 0.1 µM
[3] = second compound 0.0316 µM, first compound 0.316 µM
[4] = second compound 0.0316 µM, first compound 1 µM
[5] = second compound 0.0316 µM, first compound 3.16 µM
[6] = second compound 0.0316 µM, first compound 10 µM
[7] = second compound 0.1 µM, first compound 0.0316 µM
[8] = second compound 0.1 µM, first compound 0.1 µM
[9] = second compound 0.1 µM, first compound 0.316 µM
[10] = second compound 0.1 µM, first compound 1 µM
[11] = second compound 0.1 µM, first compound 3.16 µM
[12] = second compound 0.1 µM, first compound 10 µM
[13] = second compound 0.316 µM, first compound 0.0316 µM
[14] = second compound 0.316 µM, first compound 0.1 µM
[15] = second compound 0.316 µM, first compound 0.316 µM
[16] = second compound 0.316 µM, first compound 1 µM
[17] = second compound 0.316 µM, first compound 3.16 µM
[18] = second compound 0.316 µM, first compound 10 µM
[19] = second compound 1 µM, first compound 0.0316 µM
[20] = second compound 1 µM, first compound 0.1 µM
[21] = second compound 1 µM, first compound 0.316 µM
[22] = second compound 1 µM, first compound 1 µM
[23] = second compound 1 µM, first compound 3.16 µM
[24] = second compound 1 µM, first compound 10 µM
[25] = second compound 3.16 µM, first compound 0.0316 µM
[26] = second compound 3.16 µM, first compound 0.1 µM
[27] = second compound 3.16 µM, first compound 0.316 µM
[28] = second compound 3.16 µM, first compound 1 µM
[29] = second compound 3.16 µM, first compound 3.16 µM
[30] = second compound 3.16 µM, first compound 10 µM
[31] = second compound 10 µM, first compound 0.0316 µM
[32] = second compound 10 µM, first compound 0.1 µM
[33] = second compound 10 µM, first compound 0.316 µM
[34] = second compound 10 µM, first compound 1 µM
[35] = second compound 10 µM, first compound 3.16 µM
[36] = second compound 10 µM, first compound 10 µM

In the case of COc1cc(C2c3cc4c(cc3C(OC3OC5COC(C)OC5C(O)C3O)C3COC(=O)C23)OCO4)cc(OC)c1O (stereo not drawn) + Cc1[nH]c2ccc(F)cc2c1-c1nc2c3cccnc3c3ncccc3c2[nH]1, the IC50 (second compound 0.0316 µM) is reported as 875 nM, the IC50 (second compound 0.1 µM) is reported as 554 nM and the IC50 (second compound 0.316 µM) is reported as 784 nM. It also gave an IC50 (second compound 1 µM) of 830 nM, an IC50 (second compound 3.16 µM) of 807 nM and an IC50 (second compound 10 µM) of 607 nM. The viability, T/C [1] was 102%, the viability, T/C [2] was 86.1% and the viability, T/C [3] was 56.3%. For the same compound, the viability, T/C [4] was 49.9%, the viability, T/C [5] was 38.5% and the viability, T/C [6] was 18.4%. It also gave a viability, T/C [7] of 105%, a viability, T/C [8] of 77.7% and a viability, T/C [9] of 50.7%. For the same compound, the viability, T/C [10] was 47.1%, the viability, T/C [11] was 36.8% and the viability, T/C [12] was 18.5%. It also gave a viability, T/C [13] of 93.2%, a viability, T/C [14] of 82.3% and a viability, T/C [15] of 54.4%. For the same compound, the viability, T/C [16] was 46.9%, the viability, T/C [17] was 38.2% and the viability, T/C [18] was 15.4%. The viability, T/C [19] was 97.6%, the viability, T/C [20] was 84.4% and the viability, T/C [21] was 51.3%. It also gave a viability, T/C [22] of 54%, a viability, T/C [23] of 36.5% and a viability, T/C [24] of 13.5%. It also gave a viability, T/C [25] of 88.2%, a viability, T/C [26] of 77.3% and a viability, T/C [27] of 58.2%. It also gave a viability, T/C [28] of 49.3%, a viability, T/C [29] of 33.3% and a viability, T/C [30] of 12.9%. It also gave a viability, T/C [31] of 81.9%, a viability, T/C [32] of 74.7% and a viability, T/C [33] of 48.2%. It also gave a viability, T/C [34] of 49.4%, a viability, T/C [35] of 33.5% and a viability, T/C [36] of 14.3%.
Work on COc1cccc2c1C(=O)c1c(O)c3c(c(O)c1C2=O)CC(O)(C(=O)CO)CC3OC1CC(N)C(O)C(C)O1 (stereo not drawn) + Cc1[nH]c2ccc(F)cc2c1-c1nc2c3cccnc3c3ncccc3c2[nH]1 yielded an IC50 (second compound 0.0316 µM) of 204 nM, an IC50 (second compound 0.1 µM) of 203 nM and an IC50 (second compound 0.316 µM) of 190 nM. The IC50 (second compound 1 µM) was 201 nM, the IC50 (second compound 3.16 µM) was 171 nM and the IC50 (second compound 10 µM) was 145 nM. For the same compound, the viability, T/C [1] was 91.3%, the viability, T/C [2] was 62.5% and the viability, T/C [3] was 44.3%. For the same compound, the viability, T/C [4] was 19.1%, the viability, T/C [5] was 2.87% and the viability, T/C [6] was 0.48%. For the same compound, the viability, T/C [7] was 91.1%, the viability, T/C [8] was 62.1% and the viability, T/C [9] was 45.2%. The viability, T/C [10] was 16.8%, the viability, T/C [11] was 2.57% and the viability, T/C [12] was 1.39%. For the same compound, the viability, T/C [13] was 84.3%, the viability, T/C [14] was 60.2% and the viability, T/C [15] was 43%. For the same compound, the viability, T/C [16] was 18.9%, the viability, T/C [17] was 3.58% and the viability, T/C [18] was 1.15%. The viability, T/C [19] was 94.7%, the viability, T/C [20] was 61.9% and the viability, T/C [21] was 44.7%. It also gave a viability, T/C [22] of 19.4%, a viability, T/C [23] of 2.12% and a viability, T/C [24] of 1.25%. The viability, T/C [25] was 82.6%, the viability, T/C [26] was 58.5% and the viability, T/C [27] was 40.8%. The viability, T/C [28] was 16.7%, the viability, T/C [29] was 4.43% and the viability, T/C [30] was 1.38%. It also gave a viability, T/C [31] of 90.3%, a viability, T/C [32] of 54% and a viability, T/C [33] of 39.5%. For the same compound, the viability, T/C [34] was 15.7%, the viability, T/C [35] was 3.44% and the viability, T/C [36] was 0.4%.
Compound Nc1ccn(C2OC(CO)C(O)C2(F)F)c(=O)n1 (stereo not drawn) + Cc1[nH]c2ccc(F)cc2c1-c1nc2c3cccnc3c3ncccc3c2[nH]1 has an IC50 (second compound 0.0316 µM) of 75.8 nM, an IC50 (second compound 0.1 µM) of 83.3 nM and an IC50 (second compound 0.316 µM) of 64.3 nM. The IC50 (second compound 1 µM) was 76.3 nM, the IC50 (second compound 3.16 µM) was 68.4 nM and the IC50 (second compound 10 µM) was 53.5 nM. The viability, T/C [1] was 82.8%, the viability, T/C [2] was 39.7% and the viability, T/C [3] was 22.1%. It also gave a viability, T/C [4] of 20.7%, a viability, T/C [5] of 17% and a viability, T/C [6] of 14.1%. It also gave a viability, T/C [7] of 69%, a viability, T/C [8] of 46.4% and a viability, T/C [9] of 19%. The viability, T/C [10] was 17.5%, the viability, T/C [11] was 16% and the viability, T/C [12] was 13.9%. For the same compound, the viability, T/C [13] was 70.4%, the viability, T/C [14] was 37.5% and the viability, T/C [15] was 21.6%. The viability, T/C [16] was 18.7%, the viability, T/C [17] was 17.5% and the viability, T/C [18] was 12%. The viability, T/C [19] was 77.1%, the viability, T/C [20] was 41.1% and the viability, T/C [21] was 24.7%. For the same compound, the viability, T/C [22] was 21%, the viability, T/C [23] was 17.1% and the viability, T/C [24] was 12.1%. For the same compound, the viability, T/C [25] was 75.8%, the viability, T/C [26] was 37.5% and the viability, T/C [27] was 20.8%. It also gave a viability, T/C [28] of 18.7%, a viability, T/C [29] of 15.3% and a viability, T/C [30] of 12%. For the same compound, the viability, T/C [31] was 62.8%, the viability, T/C [32] was 35.3% and the viability, T/C [33] was 19.9%. The viability, T/C [34] was 22.1%, the viability, T/C [35] was 15.6% and the viability, T/C [36] was 11.6%.
With O=c1[nH]cc(F)c(=O)[nH]1 + Cc1[nH]c2ccc(F)cc2c1-c1nc2c3cccnc3c3ncccc3c2[nH]1 the IC50 (second compound 0.0316 µM) was 7570 nM, the IC50 (second compound 0.1 µM) was 6930 nM and the IC50 (second compound 0.316 µM) was > 10000 nM. The IC50 (second compound 1 µM) was 7580 nM, the IC50 (second compound 3.16 µM) was 5270 nM and the IC50 (second compound 10 µM) was 3520 nM. For the same compound, the viability, T/C [1] was 103%, the viability, T/C [2] was 97.3% and the viability, T/C [3] was 107%. For the same compound, the viability, T/C [4] was 95.6%, the viability, T/C [5] was 57.8% and the viability, T/C [6] was 47.5%. For the same compound, the viability, T/C [7] was 104%, the viability, T/C [8] was 101% and the viability, T/C [9] was 108%. For the same compound, the viability, T/C [10] was 111%, the viability, T/C [11] was 58.3% and the viability, T/C [12] was 46.1%. For the same compound, the viability, T/C [13] was 99.6%, the viability, T/C [14] was 104% and the viability, T/C [15] was 97.7%. The viability, T/C [16] was 102%, the viability, T/C [17] was 61.9% and the viability, T/C [18] was 48.5%. It also gave a viability, T/C [19] of 103%, a viability, T/C [20] of 107% and a viability, T/C [21] of 98.4%. For the same compound, the viability, T/C [22] was 110%, the viability, T/C [23] was 63.9% and the viability, T/C [24] was 45.6%. For the same compound, the viability, T/C [25] was 97.5%, the viability, T/C [26] was 98.1% and the viability, T/C [27] was 102%. The viability, T/C [28] was 103%, the viability, T/C [29] was 56.2% and the viability, T/C [30] was 42.1%. It also gave a viability, T/C [31] of 79.9%, a viability, T/C [32] of 85.1% and a viability, T/C [33] of 101%. It also gave a viability, T/C [34] of 99.5%, a viability, T/C [35] of 51.2% and a viability, T/C [36] of 37.2%.
